Reference: ChEMBL document CHEMBL4152186, “Recent advances in the search for novel 5-lipoxygenase inhibitors for the treatment of asthma” (Eur J Med Chem, 2018)

Legend:
[1] = biological target: T1, Polyunsaturated fatty acid 5-lipoxygenase (Homo sapiens, UniProt P09917); assay: Inhibition of 5-LOX (unknown origin)
T1 sequence (P09917 whole entry): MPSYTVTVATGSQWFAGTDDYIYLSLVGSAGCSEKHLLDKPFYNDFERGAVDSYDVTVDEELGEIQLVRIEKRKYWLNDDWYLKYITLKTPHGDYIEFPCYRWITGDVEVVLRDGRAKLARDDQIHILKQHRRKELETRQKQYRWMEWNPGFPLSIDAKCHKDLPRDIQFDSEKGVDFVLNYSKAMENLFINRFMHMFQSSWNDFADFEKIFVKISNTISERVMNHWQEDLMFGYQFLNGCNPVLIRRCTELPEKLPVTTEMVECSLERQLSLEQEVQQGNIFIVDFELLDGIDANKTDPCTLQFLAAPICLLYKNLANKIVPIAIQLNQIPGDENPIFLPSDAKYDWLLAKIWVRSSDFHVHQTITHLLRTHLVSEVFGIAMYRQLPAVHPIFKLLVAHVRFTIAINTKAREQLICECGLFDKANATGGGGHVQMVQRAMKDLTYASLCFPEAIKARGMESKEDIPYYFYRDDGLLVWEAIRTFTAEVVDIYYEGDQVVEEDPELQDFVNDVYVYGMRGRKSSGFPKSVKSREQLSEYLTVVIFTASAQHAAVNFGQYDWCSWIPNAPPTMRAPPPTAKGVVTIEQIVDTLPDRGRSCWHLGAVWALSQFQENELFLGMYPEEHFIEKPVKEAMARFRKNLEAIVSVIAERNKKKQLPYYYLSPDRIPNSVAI

[2] = biological target: T2, Prostaglandin G/H synthase 2 (Homo sapiens, UniProt P35354); assay: Inhibition of COX2 (unknown origin)
T2 sequence (P35354 whole entry): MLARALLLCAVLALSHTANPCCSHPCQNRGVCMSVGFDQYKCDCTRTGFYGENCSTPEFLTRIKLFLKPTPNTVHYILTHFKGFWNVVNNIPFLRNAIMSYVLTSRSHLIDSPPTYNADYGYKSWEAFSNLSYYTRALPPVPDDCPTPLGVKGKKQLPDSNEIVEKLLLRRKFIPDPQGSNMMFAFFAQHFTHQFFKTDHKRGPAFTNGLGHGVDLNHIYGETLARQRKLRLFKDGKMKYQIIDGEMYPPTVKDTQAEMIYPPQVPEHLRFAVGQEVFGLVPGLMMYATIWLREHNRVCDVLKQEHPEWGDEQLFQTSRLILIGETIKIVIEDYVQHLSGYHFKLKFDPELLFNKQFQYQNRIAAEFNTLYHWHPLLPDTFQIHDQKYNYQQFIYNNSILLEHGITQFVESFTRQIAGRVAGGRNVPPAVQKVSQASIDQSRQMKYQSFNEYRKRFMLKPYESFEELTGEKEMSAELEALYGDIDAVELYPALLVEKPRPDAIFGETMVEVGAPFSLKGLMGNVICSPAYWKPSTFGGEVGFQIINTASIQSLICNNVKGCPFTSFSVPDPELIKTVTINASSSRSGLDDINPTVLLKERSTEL

| IC50 [1] | IC50 [2] | Compound |
| --- | --- | --- |
| 65 to 1250 nM | – | O=C(O)c1noc(-c2ccc(OCc3ccc4ccccc4n3)cc2)c1-c1ccc(Cl)cc1 |
| 850 nM | 150 nM | CS(=O)(=O)c1ccc(-c2nc(SCCN(O)C(N)=O)nn2-c2ccc(Br)cc2)cc1 |
| 65 to 1250 nM | – | Cc1cc(Nc2ncc(-c3ccc(F)cc3)o2)cc(C)c1O |
| 65 to 1250 nM | – | CC[C@](O)(c1nnc(NCc2ccc3c(-c4ccc(F)cc4)cc(=O)oc3c2)o1)C(F)(F)F [SETILEUTON] |
